In US20130165652A1, “NOVEL HETEROCYCLIC COMPOUND, AND COMPOSITION FOR TREATING INFLAMMATORY DISEASES USING SAME” (NEOPHARM CO.,LTD., priority 2010, published 2013):

Key:
[1] = test system: oxazolone induced chronic dermatitis; experiment: Oxazolone induced chronic dermatitis animal model; assay type: in vivo, hairless mouse (SKH-1); details: hairless mice, applied once a day for 3 days
Experimental: Effects of the selected materials were evaluated using chronic dermatitis animal model. Oxazolone induced chronic dermatitis animal model by continuously applying oxazolone, which is a kind of hapten, to a hairless mouse was used. It was reported that various symptoms of atopic dermatitis relatively accurately appear in recently developed oxazolone model, and the present inventors also confirmed through the prior study that various symptoms of general atopic dermatitis appear similarly to clinically appearing symptoms. In order to construct the chronic dermatitis animal model, 5% oxazolone was applied and sensitized to the hairless mice (SKH-1, 6 weeks old). After 1 week, 0.1% oxazolone was applied every other day for 2 weeks, thereby induced the symptoms of dermatitis. After samples were applied to the dermatitis induced animal once a day for 3 days, changes in various skin functions and a skin thickness were observed. Finally, biopsy was performed on skin tissue, and histological observation was conducted. As a positive control group used in the experiment, 0.05% desonide formulation, which is a steroid having relatively weak potency, was used, and changes in trans-epidermal water loss (TEWL) skin hydration in stratum cornea, and skin thickness were observed.

PAR-2 [2] = biological target: T1, PAR-2 (Homo sapiens, UniProt P55085); experiment: Calcium immobilization assay (Calcium-4 assay kit); assay type: cell-based; details: HCT-15 cells over-expressing PAR-2; activating peptide (AP) as PAR-2 activating agent; inhibitor treated for 5 minutes before AP
T1 sequence (P55085 26-397): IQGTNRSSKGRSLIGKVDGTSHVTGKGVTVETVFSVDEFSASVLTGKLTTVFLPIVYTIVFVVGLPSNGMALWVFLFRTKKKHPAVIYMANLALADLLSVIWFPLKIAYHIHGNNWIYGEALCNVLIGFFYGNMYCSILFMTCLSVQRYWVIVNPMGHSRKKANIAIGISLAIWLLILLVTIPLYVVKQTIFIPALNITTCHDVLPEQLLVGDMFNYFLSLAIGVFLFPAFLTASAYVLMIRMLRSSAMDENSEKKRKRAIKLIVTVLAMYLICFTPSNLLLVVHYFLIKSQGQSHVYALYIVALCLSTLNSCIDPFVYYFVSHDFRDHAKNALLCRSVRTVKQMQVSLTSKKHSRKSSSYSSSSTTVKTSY
Experimental: In order to evaluate inhibitory activity of the synthesized materials against the PAR-2, primarily, an assay system in which a concentration of calcium ions in cell may be measured in real time was constructed, and evaluation was conducted using this system. The PAR-2 is a kind of G-protein coupled receptors (GPCR), and when the PAR-2 is activated in cell, phospholipase C-b (PLC-b) decomposes phosphatidylinositol 4,5-bisphosphate (PIP2) into inositol triphosphate (IP3) and diacyl glycerol (DAG) while being activated. IP3 generated at this time stimulates secretion of calcium ions in endoplasmic reticulum (ER), which is a storage of calcium ions in a cell, such that the concentration of calcium ions in the cell is increased. Based on an existing study result, an in vitro screening assay system capable of detecting a material capable of suppressing the concentration of calcium ions in the cell from being increased by activation of PAR-2 was constructed. As a PAR-2 activating agent, activating peptide (AP) was used, and as a reagent for detecting the concentration of calcium ion in the cell, a Calcium-4 assay kit produced (Molecular Probe). […]
The inhibitory activity of the synthesized materials against the PAR-2 was evaluated using the protocol as described above, and profiles of the assay for Compounds 45 and 73 prepared in Examples 1 and 2 were shown in FIGS. 1 and 2.

Cytotoxicity (CC50) = assay type: cell-based
PAR-2 [3] = biological target: T1, PAR-2; experiment: Confocal microscopy of PAR-2 activation in KNRK-PAR-2 cell line; assay type: cell-based; details: KNRK-PAR-2 cells; [trypsin]=11 μM, [SLIGKV]=100 μM, [Compound 45]=200 μM
Experimental: In order to visually confirm the activation of the PAR-2, a cell line having the following structure was prepared based on existing references, and activation of the PAR-2 was observed using a confocal microscope. As the cell line, Kirsten Murine Sarcoma Virus transformed rat kidney epithelial cell (KNRK cell) was used. In this cell line, the PAR-2 may not be expressed in a normal state. Each of the N-terminals of […] were tagged with Flag epitope, and each of the C-terminals were tagged with Myc epitope, such that a stable transfected cell was constructed. […] In a state in which the PAR-2 was not activated, Flag and Myc were double stained, such that a yellow image was shown in a merged image. However, in the case in which the PAR-2 was activated, a red image was shown while the Flag is separated.

PAR-2 [4] = biological target: T1, PAR-2; experiment: PathHunter β-arrestin GPCR assay; assay type: cell-based; set-up: purchased DiscoveRx Corp; details: β-arrestin accumulation; SKIGKV-NH2 (10 μM); samples 1000 to 50 μM
Experimental: An in vitro assay protocol capable of detecting activation of the PAR-2 was additionally introduced in addition to a calcium immobilization assay to measure the activity of the selected materials. First, the PAR-2 inhibitory activities of two kinds of samples were measured using a PathHunter™ β-arrestin GPCR assay kit (DiscoveRx Corp.) capable of detecting accumulation of β-arrestin, which is an intracellular reaction firstly generated by the activation of the PAR-2. Experiments were conducted by diluting concentrations of the samples by one-half, ranging from 1000 to 50 μM and SKIGKV-NH2 (10 μM) was treated with the PAR-2 […]. As an experimental result, suppression of β-arrestin was confirmed in both of the two kinds of samples at a concentration of 500 μM. As a measurement result, it was observed that IC50 values were different from those in calcium immobilization assay (See Table 1).

Row | Structure (SMILES) | trans-epidermal water loss (TEWL) ([1]; FIG. 5) | skin hydration in stratum cornea ([1]; FIG. 6) | skin thickness ([1]; FIG. 7) | IC50 (PAR-2 [2]) [µM] | CC50 (Cytotoxicity (CC50)) [µM] | activation of the PAR-2 (Flag/Myc double staining, merged image) (PAR-2 [3]) | IC50 (PAR-2 [4]) [µM]
1 | Cc1cccc(-c2c(C)nc3ccc(C(=O)N4CCCCC4)cn23)c1 [Compound 45] | effectively restore | effectively restore | statistically significant improvement effect | 73.8 | > 100 | activation of the PAR-2 was suppressed | 339
2 | Cc1nc2ccc(C(=O)N3CCN(C(=O)C4CCCCC4)CC3)cn2c1-c1ccccc1 [Compound 73, (4-(cyclohexanecarbonyl)piperazin-1-yl)(2-methyl-3-phenylimidazo[1,2-a]pyridin-6-yl)methanone] |  |  |  | 76.7 | > 100 |  | 401
